One data set addresses T1, RPMI 8866 cells (Homo sapiens, UniProt P13612+P26010).
T1 sequence (P13612 34-1032): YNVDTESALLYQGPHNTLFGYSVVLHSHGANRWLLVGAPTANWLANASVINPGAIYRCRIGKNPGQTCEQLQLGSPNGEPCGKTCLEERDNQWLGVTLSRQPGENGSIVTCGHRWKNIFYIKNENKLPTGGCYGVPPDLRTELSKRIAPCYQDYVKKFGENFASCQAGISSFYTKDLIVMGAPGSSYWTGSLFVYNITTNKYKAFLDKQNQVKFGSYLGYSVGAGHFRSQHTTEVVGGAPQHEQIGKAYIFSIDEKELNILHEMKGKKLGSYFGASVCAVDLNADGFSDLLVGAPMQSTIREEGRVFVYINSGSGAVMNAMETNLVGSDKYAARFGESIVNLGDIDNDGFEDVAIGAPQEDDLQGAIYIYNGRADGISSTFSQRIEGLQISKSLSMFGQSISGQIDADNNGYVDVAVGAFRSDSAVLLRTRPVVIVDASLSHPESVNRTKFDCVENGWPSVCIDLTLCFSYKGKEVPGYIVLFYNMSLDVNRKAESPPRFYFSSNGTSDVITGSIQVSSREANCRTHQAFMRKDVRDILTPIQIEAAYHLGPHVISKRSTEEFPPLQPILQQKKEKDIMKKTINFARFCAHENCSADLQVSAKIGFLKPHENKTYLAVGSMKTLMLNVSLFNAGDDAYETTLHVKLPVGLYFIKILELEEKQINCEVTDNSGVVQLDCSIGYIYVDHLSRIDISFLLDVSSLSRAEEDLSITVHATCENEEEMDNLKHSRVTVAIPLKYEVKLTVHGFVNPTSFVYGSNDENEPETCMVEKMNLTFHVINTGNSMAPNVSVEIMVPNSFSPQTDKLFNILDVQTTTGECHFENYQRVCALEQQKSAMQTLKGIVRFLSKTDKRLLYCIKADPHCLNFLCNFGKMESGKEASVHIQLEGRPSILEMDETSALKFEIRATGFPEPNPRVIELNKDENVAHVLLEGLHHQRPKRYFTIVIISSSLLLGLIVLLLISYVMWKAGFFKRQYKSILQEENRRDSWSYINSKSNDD
T1 sequence (P26010 20-798): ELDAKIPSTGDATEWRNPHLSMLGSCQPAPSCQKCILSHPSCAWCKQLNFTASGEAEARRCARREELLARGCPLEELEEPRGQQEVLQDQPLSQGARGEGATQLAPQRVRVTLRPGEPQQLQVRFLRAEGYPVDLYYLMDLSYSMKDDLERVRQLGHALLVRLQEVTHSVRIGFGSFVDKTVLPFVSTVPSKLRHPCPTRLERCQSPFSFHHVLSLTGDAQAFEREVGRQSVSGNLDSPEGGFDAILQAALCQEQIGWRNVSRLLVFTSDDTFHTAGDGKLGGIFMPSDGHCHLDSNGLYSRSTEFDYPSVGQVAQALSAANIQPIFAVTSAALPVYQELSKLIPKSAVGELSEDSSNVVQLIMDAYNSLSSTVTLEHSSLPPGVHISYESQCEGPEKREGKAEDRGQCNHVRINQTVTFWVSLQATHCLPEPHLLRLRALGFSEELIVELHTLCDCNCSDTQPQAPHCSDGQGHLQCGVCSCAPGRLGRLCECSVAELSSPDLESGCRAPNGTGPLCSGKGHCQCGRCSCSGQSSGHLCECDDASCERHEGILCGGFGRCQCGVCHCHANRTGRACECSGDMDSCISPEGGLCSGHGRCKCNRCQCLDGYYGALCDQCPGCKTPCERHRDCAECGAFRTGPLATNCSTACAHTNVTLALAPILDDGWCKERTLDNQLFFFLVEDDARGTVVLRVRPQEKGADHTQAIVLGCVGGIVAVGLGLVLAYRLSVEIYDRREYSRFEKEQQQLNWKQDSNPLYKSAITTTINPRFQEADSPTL
Description: α4β7-MAdCAM Cell Adhesion Assay. It counts as cell-based. Particulars: thioether peptide dimers, Table 7; read-out: Cell-Adhesion A4B7. In outline:
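RPMI 8866 cells (200,000/well) in DMEM with 1 mM MnCl2 and 0.1% BSA were allowed to adhere 30-45 min at 37° C to plates coated with rh MAdCAM-1/Fc (200 ng/well) in presence of serially diluted peptide. After washing, bound cells quantified by MTT, absorbance 570 nm, cell-free background subtracted.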

The nature of data set [1]: Simulated Intestinal Fluid (SIF) Stability Assay. It counts as in vitro ADME. Particulars: pig, 37° C., dimers, Table 7; for half-life: porcine pancreatin; for half-life at 22 μM: simulated intestinal fluid (SIF) with 1% porcine pancreatin, pH 6.5, porcine pancreatin. On the procedure:
Simulated Intestinal Fluid (SIF) Stability Assay
Studies were carried out in simulated intestinal fluid (SIF) to evaluate intestinal stability of the peptide molecules of the instant invention. To prepare the SIF reagent, blank FASSIF was prepared by dissolving 0.348 g NaOH, 3.954 g sodium phosphate monobasic monohydrate and 6.186 g NaCl in a final volume of 1 liter water (final pH=6.5). To this solution, 24 g porcine pancreatin (Sigma catalog P7545) was added and stirred for 30 minutes (final pancreatin concentration is 2.4%). The solution was filtered through a cheese cloth and a No. 1 Whatman filter, and 10 ml aliquots were stored at −70° C. To run the reaction, a 10 ml aliquot was thawed at 37° C., and 125 μl aliquots were removed and mixed with an equal volume of blank FASSIF. The peptide stock solution (10 mM in 100% DMSO) was diluted 75-fold in blank FASSIF. A 50 μl aliquot of the diluted peptide was combined with 125 μl pancreatin (2.4%) and 125 μl blank FASSIF to yield final concentrations of 1% pancreatin and 22 μM peptide. The reactions were incubated at 37° C., and at various time points 50 μl aliquots were removed and added to 200 μl of quench solution containing 50% acetonitrile, 50% methanol, 5% formic acid, and 1 μg/ml internal standard. The quenched samples were centrifuged at 10,000 rpm for 10 minutes, and the supernatants were analyzed by LCMS/MS. The percent remaining at each time point was calculated based on the peak area response ratio of test to compound to internal standard. Half-lives were calculated by fitting to a first-order exponential decay equation using GraphPad. A small sampling of the results of these studies is provided and discussed herein and in the accompanying figures.

Molecules are shown by their SMILES. *1 amine or outer side, *2 acyl side, *3 side chain or, on linkers, in order; H or OH if unused. Where a SMILES comes first, the peptide text is derived from it. Bridges are numbered along the chain shown (N, C = ends). Roman numbers before positions name the chains, in order. [ ]: non-standard residue; d: D form. 2Nal = N[C@@H](Cc1ccc2ccccc2c1)C(=O)O; Diglycolyl = O=C(COCC(=O)[*:2])[*:1]; NMeR = CN[C@@H](CCCNC(=N)N)C(=O)O; Tic = O=C(O)[C@@H]1Cc2ccccc2CN1; X1 = O=C(c1ccccc1C[*:2])[*:1]; Pen = CC(C)(S)[C@H](N)C(=O)O

Regarding `CC(C)C[C@@H]1NC(=O)[C@H]([C@@H](C)O)NC(=O)[C@H](CC(=O)O)NC(=O)[C@H](CO)NC(=O)[C@H](CCCNC(=N)N)N(C)C(=O)CCSCC[C@@H](C(=O)N[C@@H](Cc2c[nH]c3ccccc23)C(=O)N[C@H](CCCCNC(=O)COCC(=O)NCCCC[C@@H](NC(=O)[C@H](Cc2c[nH]c3ccccc23)NC(=O)[C@@H]2CCSCCC(=O)N(C)[C@@H](CCCNC(=N)N)C(=O)N[C@@H](CO)C(=O)N[C@@H](CC(=O)O)C(=O)N[C@@H]([C@@H](C)O)C(=O)N[C@@H](CC(C)C)C(=O)N2)C(N)=O)C(N)=O)NC1=O` [compound 149], on RPMI 8866 cells, the IC50 was greater than 1000 nM. In data set [1], this compound returned a half-life of less than 0.333 h.
Consider `CC(C)C[C@@H]1NC(=O)[C@H]([C@@H](C)O)NC(=O)[C@H](CC(=O)O)NC(=O)[C@H](CO)NC(=O)[C@H](CCCNC(=N)N)N(C)C(=O)c2ccccc2CSC(C)(C)[C@@H](C(=O)N[C@H](Cc2ccccc2)C(=O)N[C@@H](Cc2ccc3ccccc3c2)C(=O)N[C@H](CCCCNC(=O)COCC(=O)NCCCC[C@@H](NC(=O)[C@H](Cc2ccc3ccccc3c2)NC(=O)[C@@H](Cc2ccccc2)NC(=O)[C@H]2NC(=O)[C@H](CC(C)C)NC(=O)[C@H]([C@@H](C)O)NC(=O)[C@H](CC(=O)O)NC(=O)[C@H](CO)NC(=O)[C@H](CCCNC(=N)N)N(C)C(=O)c3ccccc3CSC2(C)C)C(N)=O)C(N)=O)NC1=O` [compound 162] (I: [NMeR]SDTL[Pen][dF][2Nal][dK]-NH2 / II: [NMeR]SDTL[Pen][dF][2Nal][dK]-NH2; linker I:9-II:9 via Diglycolyl; linker I:N-I:6, II:N-II:6 via X1), for which the IC50 on RPMI 8866 cells was in the range of 100 to 1000 nM. Also, the half-life at 22 μM in data set [1] was greater than 3 h.
The like results for `COC(=O)CC[C@H](NC(=O)[C@@H]1Cc2ccccc2CN1C(=O)[C@@H]1CSCc2ccccc2C(=O)N(C)[C@@H](CCCNC(=N)N)C(=O)N[C@@H](CO)C(=O)N[C@@H](CC(=O)O)C(=O)N[C@@H]([C@@H](C)O)C(=O)N[C@@H](CC(C)C)C(=O)N1)C(=O)N[C@H](CCCCN)C(N)=O` [compound 211] (HELM PEPTIDE1{[meR].S.D.T.L.C.[Tic].E.[dK].[am]}|CHEM1{[CO[*:1]]}|CHEM2{[O=C(c1ccccc1C[*:2])[*:1]]}$PEPTIDE1,CHEM1,8:R3-1:R1|PEPTIDE1,CHEM2,1:R1-1:R1|PEPTIDE1,CHEM2,6:R3-1:R2$$$V2.0) were, in that order, less than 25 nM and 0.117 h.
With `CC(C)C[C@@H]1NC(=O)[C@H]([C@@H](C)O)NC(=O)[C@H](CC(=O)O)NC(=O)[C@H](CO)NC(=O)[C@H](CCCNC(=N)N)N(C)C(=O)c2ccccc2CSC[C@@H](C(=O)N2Cc3ccccc3C[C@H]2C(=O)N[C@H](CCCCN)C(N)=O)NC1=O` [compound 216] (HELM PEPTIDE1{[meR].S.D.T.L.C.[Tic].[dK].[am]}|CHEM1{[O=C(c1ccccc1C[*:2])[*:1]]}$PEPTIDE1,CHEM1,1:R1-1:R1|PEPTIDE1,CHEM1,6:R3-1:R2$$$V2.0), the IC50 on RPMI 8866 cells is less than 25 nM. The same compound yielded a half-life at 22 μM in data set [1] greater than 3 h.
`COC(=O)CC[C@H](NC(=O)[C@@H]1Cc2ccccc2CN1C(=O)[C@@H]1CSCc2ccccc2C(=O)N(C)[C@@H](CCCNC(=N)N)C(=O)N[C@@H](CO)C(=O)N[C@@H](CC(=O)O)C(=O)N[C@@H]([C@@H](C)O)C(=O)N[C@@H](CC(C)C)C(=O)N1)C(=O)N[C@H](CCCCNC(=O)COCC(=O)NCCCC[C@@H](NC(=O)[C@H](CCC(=O)OC)NC(=O)[C@@H]1Cc2ccccc2CN1C(=O)[C@@H]1CSCc2ccccc2C(=O)N(C)[C@@H](CCCNC(=N)N)C(=O)N[C@@H](CO)C(=O)N[C@@H](CC(=O)O)C(=O)N[C@@H]([C@@H](C)O)C(=O)N[C@@H](CC(C)C)C(=O)N1)C(=O)O)C(=O)O` [compound 220] (I: [NMeR]SDTLC[Tic]E(OMe)[dK]-OH / II: [NMeR]SDTLC[Tic]E(OMe)[dK]-OH; linker I:9-II:9 via Diglycolyl; linker I:N-I:6, II:N-II:6 via X1): the IC50 at RPMI 8866 cells was less than 25 nM. In addition, the half-life in data set [1] is greater than 3 h.

Source of the values: patent publication US20260217767A1, “NOVEL A4B7 THIOETHER PEPTIDE DIMER ANTAGONISTS” (Protagonist Therapeutics, Inc., priority 2014, published 2026).
